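Grown in 96-well plates, cells were treated for 48 hours with each compound at five concentrations. Insufficient inhibition: endpoint recorded as highest concentration tested. The concentration for 50% growth inhibition is given as GI50.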 Active and inactive are the calls of the source. Rule as the data show it: active = GI50 up to about 1.1 µM and inactive = higher.
Columns and labels:
Assay in all cases: NCI anticancer screen, dose series, 48 h
[1] = test system: A549
[2] = test system: HCT-116
[3] = test system: HOP-62
[4] = test system: IGROV-1
[5] = test system: K562
[6] = test system: MOLT-4
[7] = test system: NCI-H460
[8] = test system: RXF 393
[9] = test system: SF-539
[10] = test system: SW-620
[11] = test system: U-251
[12] = test system: UACC-257
[13] = test system: HOP-92
[14] = test system: Malme-3M
[15] = test system: OVCAR-5
[16] = test system: SK-MEL-2
[17] = test system: TK-10

Measured: GI50

CC1(C)S[C@H](c2ccccc2C(=O)O)N[C@@H]1CC(=O)O
inactive: [1] > 100 µM | [2] > 100 µM | [3] > 100 µM | [4] > 100 µM | [5] > 100 µM | [6] > 100 µM | [7] > 100 µM | [8] > 100 µM | [9] > 100 µM | [10] > 100 µM | [11] > 100 µM | [12] > 100 µM

COC(=O)C1Cc2c([nH]c3ccccc23)C(c2ccccc2O)N1 (stereo unspecified)
inactive: [1] 43 µM | [2] 66.8 µM | [13] > 100 µM | [4] 33.8 µM | [5] 50 µM | [6] 41.9 µM | [14] > 100 µM | [7] 18.5 µM | [15] > 100 µM | [9] 34.1 µM | [16] > 100 µM | [10] > 100 µM | [17] 52 µM | [11] > 100 µM | [12] 84.1 µM

O=C(/C=C1\Nc2ccccc2C(=O)N1c1ccc(Cl)cc1)c1ccncc1
inactive: [1] > 100 µM | [2] > 100 µM | [3] > 100 µM | [13] > 100 µM | [5] > 100 µM | [6] > 100 µM | [14] 60.1 µM | [7] > 100 µM | [15] > 100 µM | [16] > 100 µM | [10] > 100 µM | [17] > 100 µM | [11] > 100 µM | [12] > 100 µM

O=C1c2ccccc2N2OC3C4CCC(C4)C3C12c1ccccc1 (stereo unspecified)
inactive: [1] 55.5 µM | [2] 45.5 µM | [3] > 100 µM | [13] 40.8 µM | [4] > 100 µM | [5] 47 µM | [6] 32.1 µM | [14] > 100 µM | [8] 16.5 µM | [9] > 100 µM | [10] > 100 µM | [11] 86.5 µM | [12] 70 µM

Cc1nc2ccccc2c(=O)n1/N=C(\N=N\c1ccccc1Cl)c1ccccc1
inactive: [1] 48.6 µM | [2] > 10 µM | [3] 19.1 µM | [13] 36.5 µM | [4] 19.4 µM | [6] > 10 µM | [7] 23.9 µM | [8] 23 µM | [9] 18.7 µM | [10] 22.7 µM | [17] 60.5 µM | [11] 26.7 µM

O=C1C2C=CC(C2)C(c2ccc(O)cc2)N1O (stereo unspecified)
inactive: [1] > 100 µM | [2] > 100 µM | [3] > 100 µM | [13] > 100 µM | [4] > 100 µM | [5] > 100 µM | [6] > 100 µM | [14] > 100 µM | [7] > 100 µM | [15] > 100 µM | [16] > 100 µM | [10] > 100 µM | [17] > 100 µM | [11] > 100 µM | [12] > 100 µM

COC(=O)[C@@]12C3=NO[C@]1(C(=O)OC)C(O[Si](C)(C)C(C)(C)C)[C@H]1OC(C)(C)O[C@H]1[C@@H]2C(OCc1ccccc1)CC3 (stereo partly specified)
inactive: [1] 34 µM | [2] 41.8 µM | [13] 2.75 µM | [4] 42.7 µM | [5] > 100 µM | [6] 9.66 µM | [7] 6.21 µM | [9] 59.2 µM | [16] 28.8 µM | [10] > 100 µM | [17] 84.1 µM | [11] 43.5 µM

Cn1cnc([N+](=O)[O-])c1Sc1nc2ccccc2s1
inactive: [1] 10.2 µM | [2] 5.47 µM | [3] 25.2 µM | [13] 2.77 µM | [4] 11.9 µM | [6] 1.89 µM | [14] 1.84 µM | [7] 12 µM | [15] 14.6 µM | [8] 2.15 µM | [9] 12.5 µM | [10] 4 µM | [11] 11.7 µM

From ChEMBL document CHEMBL1201862, “PubChem BioAssay data set” (2004)
